Among the data in patent US9737542B2, “Pyrrolotriazine kinase inhibitors” (BRISTOL-MYERS SQUIBB COMPANY, priority 2013, dated 2017) are IC50 and Response values, retold here.

SMILES strings stand for the structures.

GST-Xa-hAAK1, sequence (Q2M2I8 whole entry): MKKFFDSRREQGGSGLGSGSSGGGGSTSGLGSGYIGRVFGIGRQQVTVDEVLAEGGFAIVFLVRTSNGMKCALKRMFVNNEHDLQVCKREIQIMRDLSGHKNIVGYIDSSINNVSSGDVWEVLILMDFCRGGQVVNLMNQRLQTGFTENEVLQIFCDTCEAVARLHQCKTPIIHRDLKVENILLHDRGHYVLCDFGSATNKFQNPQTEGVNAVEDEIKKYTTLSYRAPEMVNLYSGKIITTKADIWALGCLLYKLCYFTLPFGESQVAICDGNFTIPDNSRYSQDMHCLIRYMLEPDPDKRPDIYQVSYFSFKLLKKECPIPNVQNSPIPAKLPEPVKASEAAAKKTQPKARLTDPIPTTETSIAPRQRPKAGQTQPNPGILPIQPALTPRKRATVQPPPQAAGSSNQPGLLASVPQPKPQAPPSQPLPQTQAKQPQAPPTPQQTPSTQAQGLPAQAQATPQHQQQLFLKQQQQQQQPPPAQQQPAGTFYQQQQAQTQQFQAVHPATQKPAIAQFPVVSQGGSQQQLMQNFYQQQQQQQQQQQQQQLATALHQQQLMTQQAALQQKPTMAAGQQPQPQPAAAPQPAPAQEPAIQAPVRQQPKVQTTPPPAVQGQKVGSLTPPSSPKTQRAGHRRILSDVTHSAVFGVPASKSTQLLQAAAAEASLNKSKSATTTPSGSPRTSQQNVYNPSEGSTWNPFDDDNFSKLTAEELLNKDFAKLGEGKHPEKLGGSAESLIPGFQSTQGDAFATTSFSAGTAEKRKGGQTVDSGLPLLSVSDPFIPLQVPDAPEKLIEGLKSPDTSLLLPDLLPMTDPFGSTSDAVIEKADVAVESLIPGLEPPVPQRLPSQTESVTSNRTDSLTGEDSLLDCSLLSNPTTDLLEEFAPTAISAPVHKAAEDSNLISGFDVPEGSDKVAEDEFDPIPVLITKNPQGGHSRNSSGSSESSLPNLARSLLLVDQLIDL

The first assay concerns the target GST-Xa-hAAK1 (Homo sapiens (Human), UniProt Q2M2I8). Description: AAK1 Kinase Assay. The settings on record: ATP 22 μM; 3 hours at room temperature. It counts as biochemical.
A word on the IC50: it is the concentration needed to halve the response being measured. Take `Cc1ccn2ncnc(Nc3cccc(-c4noc(C(C)(C)CO)n4)c3)c12` [Example 89, 2-methyl-2-(3-(3-(5-methylpyrrolo[1,2-f][1,2,4]triazin-4-ylamino)phenyl)-1,2,4-oxadiazol-5-yl)propan-1-ol]: the IC50 is 207 nM.
Molecule `Cc1ccn2ncnc(Nc3cccc(-c4noc(C(C)(C)CCl)n4)c3)c12` [Example 90, N-(3-(5-(1-chloro-2-methylpropan-2-yl)-1,2,4-oxadiazol-3-yl)phenyl)-5-methylpyrrolo[2,1-f][1,2,4]triazin-4-amine] returned an IC50 of 52 nM.
With `Cc1ccn2ncnc(Nc3cccc(-c4noc(C(C)(C)CN)n4)c3)c12` [Example 91, N-(3-(5-(1-amino-2-methylpropan-2-yl)-1,2,4-oxadiazol-3-yl)phenyl)-5-methylpyrrolo[2,1-f][1,2,4]triazin-4-amine], the midpoint of inhibition, the IC50, lay at 63 nM.
On the same count and under the same terms, in the case of `COc1cc(Nc2ncnn3ccc(C)c23)cc(-c2noc(C(C)C)n2)c1` [Example 92, N-(3-(5-isopropyl-1,2,4-oxadiazol-3-yl)-5-methoxyphenyl)-5-methylpyrrolo[2,1-f][1,2,4]triazin-4-amine] it was 1170 nM; in that of `Cc1ccn2ncnc(Nc3cc(O)cc(-c4noc(C(C)C)n4)c3)c12` [Example 93, 3-(5-isopropyl-1,2,4-oxadiazol-3-yl)-5-((5-methylpyrrolo[2,1-f][1,2,4]triazin-4-yl)amino)phenol], 73 nM.
`CCOC(=O)c1ccn2ncnc(Nc3cccc(-c4nnc(C(C)C)s4)c3)c12` [Example 94, ethyl 4-((3-(5-isopropyl-1,3,4-thiadiazol-2-yl)phenyl)amino)pyrrolo[2,1-f][1,2,4]triazine-5-carboxylate] had an IC50 of 474 nM. Against the preceding molecule, the IC50 is about 6.5-fold higher.
As for `CCOC(=O)c1ccn2ncnc(Nc3cc(O)cc(-c4nnn(C(C)C)n4)c3)c12` [Example 95, ethyl 4-((3-hydroxy-5-(2-isopropyl-2H-tetrazol-5-yl)phenyl)amino)pyrrolo[2,1-f][1,2,4]triazine-5-carboxylate], the 50% inhibitory concentration (IC50) was 2530 nM.
In turn, `CCOC(=O)c1ccn2ncnc(Nc3cccc(-c4nnn(C(C)C)n4)c3)c12` [Example 96, ethyl 4-((3-(2-isopropyl-2H-tetrazol-5-yl)phenyl)amino)pyrrolo[2,1-f][1,2,4]triazine-5-carboxylate] gave a concentration for half-maximal inhibition (IC50) of 624 nM.
For `CCOC(=O)c1ccn2ncnc(Nc3cccc(-c4noc(C(C)C)n4)c3)c12` [Example 97, ethyl 4-((3-(5-isopropyl-1,2,4-oxadiazol-3-yl)phenyl)amino)pyrrolo[2,1-f][1,2,4]triazine-5-carboxylate], the IC50 was 883 nM. The IC50 values of the last two molecules are within 1.5-fold of each other.
Same read-out and setting: in the case of `CC(C)n1nnc(-c2cccc(Nc3ncnn4ccc(CO)c34)c2)n1` [Example 98, (4-((3-(2-isopropyl-2H-tetrazol-5-yl)phenyl)amino)pyrrolo[2,1-f][1,2,4]triazin-5-yl)methanol] it was 92 nM; in that of `CC(C)n1nnc(-c2cccc(Nc3ncnn4ccc(CN)c34)c2)n1` [Example 99, 5-(aminomethyl)-N-(3-(2-isopropyl-2H-tetrazol-5-yl)phenyl)pyrrolo[2,1-f][1,2,4]triazin-4-amine], 217 nM; in that of `COCc1ccn2ncnc(Nc3cccc(-c4nnn(C(C)C)n4)c3)c12` [Example 100, N-(3-(2-isopropyl-2H-tetrazol-5-yl)phenyl)-5-(methoxymethyl)pyrrolo[2,1-f][1,2,4]triazin-4-amine], 54 nM.
`CC(C)n1nnc(-c2cccc(Nc3ncnn4ccc(C(=O)N(C)C)c34)c2)n1` [Example 101, 4-((3-(2-isopropyl-2H-tetrazol-5-yl)phenyl)amino)-N,N-dimethylpyrrolo[2,1-f][1,2,4]triazine-5-carboxamide] gave an IC50 of 687 nM. This IC50 is about 13-fold higher than that of the molecule before.
`CC(C)n1nnc(-c2cccc(Nc3ncnn4ccc(CN(C)C)c34)c2)n1` [Example 102, 5-((dimethylamino)methyl)-N-(3-(2-isopropyl-2H-tetrazol-5-yl)phenyl)pyrrolo[2,1-f][1,2,4]triazin-4-amine] registered an IC50 of 49 nM.
`CNC(=O)c1ccn2ncnc(Nc3cccc(-c4nnn(C(C)C)n4)c3)c12` [Example 103, 4-((3-(2-isopropyl-2H-tetrazol-5-yl)phenyl)amino)-N-methylpyrrolo[2,1-f][1,2,4]triazine-5-carboxamide] yielded a half-inhibitory concentration (IC50) of 26 nM.
In turn, `CCNC(=O)c1ccn2ncnc(Nc3cccc(-c4nnn(C(C)C)n4)c3)c12` [Example 104, N-ethyl-4-((3-(2-isopropyl-2H-tetrazol-5-yl)phenyl)amino)pyrrolo[2,1-f][1,2,4]triazine-5-carboxamide] displayed a 50% inhibitory concentration (IC50) of 195 nM.
As to `CC(C)n1nnc(-c2cccc(Nc3ncnn4ccc(C(=O)NCC5CC5)c34)c2)n1` [Example 105, N-(cyclopropylmethyl)-4-((3-(2-isopropyl-2H-tetrazol-5-yl)phenyl)amino)pyrrolo[2,1-f][1,2,4]triazine-5-carboxamide], the IC50 is 785 nM.
Still for that read-out and setting: the figure for `CC(C)NC(=O)c1ccn2ncnc(Nc3cccc(-c4nnn(C(C)C)n4)c3)c12` [Example 106, N-isopropyl-4-((3-(2-isopropyl-2H-tetrazol-5-yl)phenyl)amino)pyrrolo[2,1-f][1,2,4]triazine-5-carboxamide] is 2350 nM.
In turn, `CC(C)n1nnc(-c2cccc(Nc3ncnn4ccc(C(=O)NCC#N)c34)c2)n1` [Example 107, N-(cyanomethyl)-4-((3-(2-isopropyl-2H-tetrazol-5-yl)phenyl)amino)pyrrolo[2,1-f][1,2,4]triazine-5-carboxamide] came in with an IC50 of 469 nM. Compared with the last molecule, the IC50 is about 5-fold lower.
The molecule `COCCNC(=O)c1ccn2ncnc(Nc3cccc(-c4nnn(C(C)C)n4)c3)c12` [Example 108, 4-((3-(2-isopropyl-2H-tetrazol-5-yl)phenyl)amino)-N-(2-methoxyethyl)pyrrolo[2,1-f][1,2,4]triazine-5-carboxamide] came in with a half-maximal inhibitory concentration (IC50) of 289 nM.
Still for that read-out and setting: the figure for `CC(C)n1nnc(-c2cccc(Nc3ncnn4ccc(C(=O)N5CCC(N)CC5)c34)c2)n1` [Example 109, (4-aminopiperidin-1-yl)(4-((3-(2-isopropyl-2H-tetrazol-5-yl)phenyl)amino)pyrrolo[2,1-f][1,2,4]triazin-5-yl)methanone] is 4770 nM.
On the same count and under the same terms, the figure for `CC(C)C[C@@H](N)C(=O)Nc1cccc(Nc2ncnn3ccc(C(=O)N4CCC(N)CC4)c23)c1` [Example 110, (R)-2-amino-N-(3-((5-(4-aminopiperidine-1-carbonyl)pyrrolo[2,1-f][1,2,4]triazin-4-yl)amino)phenyl)-4-methylpentanamide] is 7710 nM; for `COC(=O)c1cn2ncnc(Nc3cccc(-c4nnn(C(C)C)n4)c3)c2c1CN1CCC(N)CC1` [Example 111, methyl 5-((4-aminopiperidin-1-yl)methyl)-4-((3-(2-isopropyl-2H-tetrazol-5-yl)phenyl)amino)pyrrolo[2,1-f][1,2,4]triazine-6-carboxylate] it is 16 nM.

The test system of the next assay is mice (pain response, formalin paw test). In words: formalin paw test. The assay is classed as in vivo, mouse. The settings on record: 60 mg/kg sc; % response relative to gabapentin 200 mg/kg. The procedure: AAK1 homozygous (−/−) and their wild-type (+/+) littermates were tested using the formalin paw test in order to assess their acute and tonic nociceptive responses. For these tests, Automatic Nociception Analyzers (purchased from the Ozaki lab at University of California, San Diego) were used. A metal band was placed around the left hind paw of each mouse 30 minutes prior to testing. After the 30-minute acclimation period, 20 μl of 5% formalin is subcutaneously injected in the dorsal surface of the left hind paw. Mice were individually housed in cylindrical chambers for 45 minutes. Fresh 5% formalin solution was prepared by diluting formaldehyde (Formalde-fresh 20%, Fisher Scientific, Fair Lawn, N.J.) with distilled water. Investigatory compounds were administered 30 minutes prior to formalin injection.
A computer recorded flinches per minute, total flinches for phase I (acute phase=first 8 minutes), and total flinches for phase II (tonic phase=time between minutes 20-40 or 10-60 minutes for drug studies) through an electromagnetic field. See Yaksh T L, Ozaki G, McCumber D, Rathbun M, Svensson C, Malkmus S, Yaksh M C. An automated flinch detecting system for use in the formalin nociceptive bioassay. J Appl Physiol., 2001; 90:2386-402.
The same test was used to confirm that the administration of an AAK1 inhibitor can also affect pain response. […]
In turn, `CC(C)c1nc(-c2cccc(NC(=O)c3cnc4ccc(NC5CCC(N)CC5)nn34)c2)no1` [6-(((1R,4R)-4-aminocyclohexyl)amino)-N-(3-(5-isopropyl-1,2,4-oxadiazol-3-yl)phenyl)imidazo[1,2-b]pyridazine-3-carboxamide] displayed a Response of 59%.

The same assay, now with this note: 200 mg/kg sc; % response relative to gabapentin 200 mg/kg.
`NCC1(CC(=O)O)CCCCC1` [Gabapentin, reference compound]: the Response is on record as 73%.
